Data as given in patent US10696611B2, “Adamantane derivative compound” (AMOREPACIFIC CORPORATION, priority 2014, dated 2020).
Like-named read-outs stand apart in the source and are kept apart here.

What was measured:
[1] = tested on: male and female subjects suffering from excessive secretion of sebum; experiment: effect of inhibiting secretion of sebum (Sebumeter SM810); type: in vivo; conditions: nourishing cream including the compound applied every day
Experimental: The following test is carried out to evaluate the adamantane derivatives according to Examples 1-10 for the effect of inhibiting secretion of sebum. Twenty male and female subjects suffering from excessive secretion of sebum are selected and allowed to apply nourishing cream including each of Examples 1-10 and nourishing cream of negative control every day at a predetermined site for 4 weeks. Then, Sebumeter SM810 (C&K Electronic Co., Germany) is used to determine the average ratio (%) of decrease in sebum after 2 weeks and 4 weeks.

[2] = tested on: Rat-derived follicle dermal papilla cells; experiment: growth of dermal papilla cells (MTT); type: cell-based; conditions: 10 μg/ml, 48 hours, MTT absorbance at 570 nm relative to DMSO control (100), read-out: Ratio (%) of growth of dermal papilla cells
Experimental: Rat-derived follicle dermal papilla cells cultured in Dulbecco's modified Eagle's media (DMEM) containing 2% of fetal bovine serum are dispensed to a 96-well microtiter plate to 1,000 cells/well. As positive control, minoxidil diluted to a concentration of 10 μg/ml is added. Each of the adamantane derivatives according to Examples 1-10 diluted to a concentration of 10 μg/ml is added, followed by culturing at 37° C. for 48 hours. After culturing, 0.2% 3-[4,5-dimethylthiazol-2-yl]-2,5-diphenyltetrazolium bromide (MTT) solution is added to each well in an amount of 50 μl, followed by culturing at 37° C. for 4 hours. Then, the produced formazane is dissolved with dimethyl sulfoxide (DMSO). A microplate reader is used to determine the absorbance of the dissolved formazane at 570 nm. The absorbance is compared with the absorbance of control treated with DMSO solution alone and the ratio (%) of growth of dermal papilla cells is evaluated based on the relative difference.

[3] = tested on: mice; experiment: effect of stimulating hair growth in dehaired mice; type: in vivo; conditions: 1.0 wt % in water/ethanol/1,3-butylene glycol, 150 μl/day applied on back for 21 days; newly grown hair
Experimental: To evaluate the adamantane derivatives according to the present disclosure for the effect of stimulating hair growth, each of the adamantane derivatives according to Examples 1-10 is dissolved into a solvent including water/ethanol/1,3-butylene glycol (5/3/2) to a concentration of 1.0 wt %. Next, mice 47-53 days after the birth are dehaired on their backs. Then, mice whose skins on the back portions are clear are selected and grouped by 8 mice per group. Each adamantane derivative having a concentration of 1.0 wt % is applied to each mouse every day in an amount of 150 μl/day for 21 days. After 21 days, newly grown hair is weighed and the weight is compared with negative control.

[4] = target: T1, androgen receptor (AR) (Homo sapiens, UniProt P10275, T878A); experiment: competitive steroid binding assay ([3H] methyltrienolone displacement)
T1 construct: wild type androgen receptor (AR) is obtained by isolating cytoplasm fraction from LNCaP cell line; host or cells: LNCaP cytoplasm fraction
T1 sequence (P10275 1-920 T878A): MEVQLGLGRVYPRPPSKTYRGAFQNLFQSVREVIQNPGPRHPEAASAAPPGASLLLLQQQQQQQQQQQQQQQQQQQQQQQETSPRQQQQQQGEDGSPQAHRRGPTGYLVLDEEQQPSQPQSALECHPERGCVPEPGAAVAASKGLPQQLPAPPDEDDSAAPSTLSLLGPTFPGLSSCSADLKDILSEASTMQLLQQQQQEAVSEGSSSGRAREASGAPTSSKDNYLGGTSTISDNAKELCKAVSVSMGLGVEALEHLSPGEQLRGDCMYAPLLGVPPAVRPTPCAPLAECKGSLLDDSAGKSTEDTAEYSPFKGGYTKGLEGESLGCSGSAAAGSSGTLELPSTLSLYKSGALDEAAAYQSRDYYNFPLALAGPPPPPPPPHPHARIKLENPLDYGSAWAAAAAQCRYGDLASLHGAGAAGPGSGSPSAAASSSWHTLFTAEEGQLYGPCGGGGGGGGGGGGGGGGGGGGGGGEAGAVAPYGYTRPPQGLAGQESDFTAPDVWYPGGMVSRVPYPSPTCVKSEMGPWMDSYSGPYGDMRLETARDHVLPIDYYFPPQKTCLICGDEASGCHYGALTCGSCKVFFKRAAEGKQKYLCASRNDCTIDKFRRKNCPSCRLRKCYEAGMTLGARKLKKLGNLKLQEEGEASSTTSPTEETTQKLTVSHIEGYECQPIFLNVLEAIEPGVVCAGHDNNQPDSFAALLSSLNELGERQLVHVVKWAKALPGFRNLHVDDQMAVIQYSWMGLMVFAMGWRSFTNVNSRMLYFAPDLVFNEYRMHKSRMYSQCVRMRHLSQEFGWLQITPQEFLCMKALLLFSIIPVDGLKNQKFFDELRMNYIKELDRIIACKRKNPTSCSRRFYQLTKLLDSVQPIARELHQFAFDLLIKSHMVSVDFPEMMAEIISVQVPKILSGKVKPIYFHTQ
Experimental: This assay determines whether or not the adamantane derivative according to the present disclosure is bound to androgen receptor (AR) competitively with methyltrienolone, which is an agonist to androgen receptor.
Such competitive steroid binding assay is carried out by introducing tritium-labeled methyltrienolone as a ligand for androgen receptor, introducing test samples non-labeled with radio isotope thereto at a different concentration, and checking whether or not the test samples are bound to androgen receptor competitively with the ligand, methyltrienolone. In this manner, the test samples are evaluated for their anti-androgenic effects. Herein, the level of the remaining isotope, tritium, is measured to determine whether or not the test samples are bound to androgen receptor competitively with the ligand, methyltrienolone.
Particularly, wild type androgen receptor (AR) is obtained by isolating cytoplasm fraction from LNCaP cell line (ATCC® CRL-1740™). […] The reaction is carried out at 4° C. for 24 hours and the reaction mixture is filtered and washed. Then, radio activity is measured in each ligand bound to the receptor.

[5] = wild type AR from LNCaP cytoplasm fraction, [3H] methyltrienolone, 4° C. for 24 hours

## N#Cc1ccc(NC(=O)C23CC4CC(CC(C4)C2)C3)cc1C(F)(F)F [Comp. Ex. 1, Adamantan-1-carboxylic acid-(4-cyano-3-trifluoro-phenyl)amide, reference compound]
[1]
  Ratio (%) of decrease in sebum After 2 weeks: 16.5%
  Ratio (%) of decrease in sebum After 4 weeks: 26.2%
[2]
  activity at 10 µg/mL: 114%
[3]
  Hair weight: 59 ± 12 mg
[4]
  IC50: 11400 nM

## Cc1cc(NC(=O)C23CC4CC(CC(C4)C2)C3)ccc1[N+](=O)[O-] [Example 1, Adamantan-1-carboxylic acid-(3-methyl-4-nitrophenyl)-amide]
[1]
  Ratio (%) of decrease in sebum After 2 weeks: 21.5%
  Ratio (%) of decrease in sebum After 4 weeks: 35.2%
[2]
  activity at 10 µg/mL: 124%
[3]
  Hair weight: 77 ± 11 mg
[4]; [5]
  IC50: 1200 nM

## COc1cc(NC(=O)C23CC4CC(CC(C4)C2)C3)ccc1[N+](=O)[O-] [Example 2, Adamantan-1-carboxylic acid-(3-methoxy-4-nitrophenyl)-amide]
[1]
  Ratio (%) of decrease in sebum After 2 weeks: 19.4%
  Ratio (%) of decrease in sebum After 4 weeks: 28.8%
[2]
  activity at 10 µg/mL: 124%
[3]
  Hair weight: 74 ± 9 mg
[4]; [5]
  IC50: 240 nM

## O=C(Nc1ccc([N+](=O)[O-])c(Cl)c1)C12CC3CC(CC(C3)C1)C2 [Example 3, Adamantan-1-carboxylic acid-(3-chloro-4-nitrophenyl)-amide]
[1]
  Ratio (%) of decrease in sebum After 2 weeks: 18.1%
  Ratio (%) of decrease in sebum After 4 weeks: 27.6%
[2]
  activity at 10 µg/mL: 118%
[3]
  Hair weight: 72 ± 6 mg
[4]; [5]
  IC50: 440 nM

## O=C(Nc1ccc([N+](=O)[O-])cc1Cl)C12CC3CC(CC(C3)C1)C2 [Example 4, Adamantan-1-carboxylic acid-(2-chloro-4-nitrophenyl)-amide]
[1]
  Ratio (%) of decrease in sebum After 2 weeks: 20.7%
  Ratio (%) of decrease in sebum After 4 weeks: 29.7%
[2]
  activity at 10 µg/mL: 130%
[3]
  Hair weight: 75 ± 10 mg
[4]; [5]
  IC50: 1400 nM

## COc1cc(NC(=O)C23CC4CC(CC(C4)C2)C3)ccc1C#N [Example 5, Adamantan-1-carboxylic acid-(4-cyano-3-methoxy-phenyl)-amide]
[1]
  Ratio (%) of decrease in sebum After 2 weeks: 18.7%
  Ratio (%) of decrease in sebum After 4 weeks: 32.8%
[2]
  activity at 10 µg/mL: 145%
[3]
  Hair weight: 71 ± 14 mg
[4]; [5]
  IC50: 2200 nM

## N#Cc1ccc(NC(=O)C23CC4CC(CC(C4)C2)C3)c(Cl)c1 [Example 6, Adamantan-1-carboxylic acid-(4-cyano-2-chloro-phenyl)-amide]
[1]
  Ratio (%) of decrease in sebum After 2 weeks: 17.4%
  Ratio (%) of decrease in sebum After 4 weeks: 31.4%
[2]
  activity at 10 µg/mL: 124%
[3]
  Hair weight: 67 ± 12 mg
[4]; [5]
  IC50: 2400 nM

## Cc1cc(C(=O)NC23CC4CC(CC(C4)C2)C3)ccc1[N+](=O)[O-] [Example 7]
[1]
  Ratio (%) of decrease in sebum After 2 weeks: 18.1%
  Ratio (%) of decrease in sebum After 4 weeks: 29.8%
[2]
  activity at 10 µg/mL: 123%
[3]
  Hair weight: 68 ± 8 mg
[4]; [5]
  IC50: 1900 nM

## COc1cc(C(=O)NC23CC4CC(CC(C4)C2)C3)ccc1[N+](=O)[O-] [Example 8]
[1]
  Ratio (%) of decrease in sebum After 2 weeks: 19.8%
  Ratio (%) of decrease in sebum After 4 weeks: 33.7%
[2]
  activity at 10 µg/mL: 125%
[3]
  Hair weight: 70 ± 14 mg
[4]; [5]
  IC50: 740 nM

## COc1cc(NC(=O)C23CC4CC(CC(C4)C2)C3)ccc1F [Example 17, Adamantan-1-carboxylic Acid (4-fluoro-3-methoxyphenyl)amide]
[4]; [5]
  IC50: 14800 nM

## COc1cc(NC(=O)C23CC4CC(CC(C4)C2)C3)ccc1Br [Example 19, Adamantan-1-carboxylic Acid (4-bromo-3-methoxyphenyl)amide]
[4]; [5]
  IC50: 5300 nM

## O=C(Nc1cccc([N+](=O)[O-])c1)C12CC3CC(CC(C3)C1)C2 [Example 23, Adamantan-1-carboxylic Acid (3-nitrophenyl)amide]
[4]; [5]
  IC50: 13500 nM

## COc1cc([N+](=O)[O-])ccc1NC(=O)C12CC3CC(CC(C3)C1)C2 [Example 25, Adamantan-1-carboxylic Acid (2-methoxy-4-nitrophenyl)amide]
[4]; [5]
  IC50: 1200 nM

## Nc1cc(N2CCCCC2)nc(N)[n+]1[O-] [minoxidil, reference compound]
[2]
  activity at 10 µg/mL: 120%
